# Results reported in publication PMC6408276 (ACS infectious diseases, 2019).
# Several values for one entry are separate records, joined by “and”; a condition that tells them apart may be missing. Equal entries are not always repeated.
# What was measured:
# [1] = tested on: Colombiana strain of Trypanosoma cruzi; assay: Mouse model of T. cruzi infection: parasitemia, survival and natural relapse; format: in vivo
# [2] = tested on: Colombiana strain of Trypanosoma cruzi; assay: Assessment of therapeutic failure after cyclophosphamide immunosuppression; format: in vivo; details: for Blood parasite load determined by qPCR: n=5, after cyclophosphamide; for Blood parasite load determined by qPCR / % Negative blood qPCR: VFV in 10 % DMSO plus 5 % Gum Arabic; for % Blood parasite clearence (negative qPCR): n=10, after cyclophosphamide immunosuppression, VFV in DGAT; for % Negative blood qPCR: surviving mice n=5, after cyclophosphamide
# [3] = PK studies in mice after single oral administration; format: in vivo; details: for Life time (time until compound becomes undetectable, below 0.1 μM): mice plasma; for Life time (time until compound becomes undetectable, below 0.1 μM) / Bioavailability when Tween 80 was added to the vehicle (DGAT vs HPCD): single oral 25 mg/kg; for Bioavailability when Tween 80 was added to the vehicle (DGAT vs HPCD): mice; for Tmax: mouse, po, 25 mg/kg
# NIH/3T3 = details: cited from earlier work
# [4] = cited from earlier work
# [5] = cited from earlier work; remark: listed apart in the source
# CYP3A4 = details: read-out: CYP3A4 IC50; cited from earlier work
# [6] = cited from earlier work; remark: listed apart in the source
# [7] = Swiss male mice n=5, 60 days po, VNI and VFV in 10 % DMSO plus 5 % Gum Arabic
# [8] = Swiss male mice n=10, 60 days po, VFV in DGAT
Structure (SMILES),"% Animal survival [1, 7] [%]","Natural relapse after the therapy [1, 7]","% Animal survival [1, 8] [%]","Natural relapse after the therapy [1, 8]",Blood parasite load determined by qPCR [2],% Blood parasite clearence (negative qPCR) [2] [%],% Negative blood qPCR [2] [%],"% Parasitemia suppression [1, 8] [%]","Life time (time until compound becomes undetectable, below 0.1 μM) ([3]; HPCD formulation) [h]",Bioavailability when Tween 80 was added to the vehicle (DGAT vs HPCD) [3],Tmax ([3]; in vivo) [h],EC25 (cellular toxicity) (NIH/3T3) [µM],Hepatic clearance [4],NOAEL (in vivo toxicity) [5] [mg/kg],IC50 (CYP3A4) [µM],"% Parasitemia suppression [1, 7] [%]","Sustained negative parasitemia after cyclophosphamide (light microscopy) ([2]; n=5, 10 % DMSO plus 5 % Gum Arabic vehicle) [%]","Life time (time until compound becomes undetectable, below 0.1 μM) ([3]; DGAT formulation) [h]",Tmax ([3]; plasma) [h],Maximal concentration in mice plasma [6] [µM]
"O=C(Cn1ccnc1[N+](=O)[O-])NCc1ccccc1 [Bz, benznidazole, reference compound]",100,all animals and 5 out of 5 mice,100,6 mice and 6 out of 10 mice,13038 ± 13612,30,0,,,,,,,,,,,,,
"O=C(N[C@@H](Cn1ccnc1)c1ccc(-c2ccc(F)cc2)cc1F)c1ccc(-c2nnc(-c3ccccc3)o2)cc1 [VFV, (R)-N-(1-(3,4′-difluorobiphenyl-4-yl)-2-(1H-imidazol-1-yl)ethyl)-4-(5-phenyl-1,3,4oxadiazol-2-yl)benzamide]",100,all animals and 5 out of 5 mice,100,5 mice and 5 out of 10 mice,905 ± 854,0,0,99.8,<24,three-fold higher bioavailability,4,> 50,moderate hepatic clearance,> 200,3.6,,,,,
"O=C(N[C@@H](Cn1ccnc1)c1ccc(Cl)cc1Cl)c1ccc(-c2nnc(-c3ccccc3)o2)cc1 [VNI, (R)-N-(1-(2,4-dichlorophenyl)-2-(1H-imidazol-1-yl)ethyl)-4-(5-phenyl-1,3,4-oxadi-azol-2 yl)benzamide]",100,3 out of five and 3 out of 5 mice,,,372 ± 528,,20,,10,three-fold higher bioavailability,,,,,,99.9,20,16,2,
